Experimental data from patent US20110152267A1, “Compositions and Methods for Treating Hyperproliferative Disorders” (Texas Tech University System, priority 2009, published 2011).

What was measured:
Assay type in all cases: cell-based, human
[1] = tested on: A-549 lung adenocarcinoma cell line; assay: DIMSCAN cytotoxicity, fenretinide + L-threo-sphinganines 3:1 (Example B13); conditions: 96 h
Procedure, shortened: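 A-549 cells attached overnight, then exposed 96 h at 37 °C to fenretinide and L-threo-sphinganines alone or at 3:1 fenretinide:sphinganine. Viability via fluorescein diacetate with eosin Y quench, digital imaging microscopy; survival fraction versus vehicle wells, with Chou-Talalay combination index (CI<0.9 synergy).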

[2] = tested on: PC-3 prostate adenocarcinoma cell line; assay: DIMSCAN cytotoxicity, fenretinide + L-threo-sphinganines 3:1 (Example B17)
Procedure, shortened: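 PC-3 cells were treated for 96 h at 37 °C with fenretinide plus L-threo-sphinganines at a 3:1 ratio, 12 wells per concentration. Viable cells were measured by DIMSCAN (fluorescein diacetate with eosin Y quenching) and expressed as survival fraction versus vehicle. Combination index was derived by Chou-Talalay analysis.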

[3] = tested on: SJ-GBM2 Glioblastoma multiforme cell line; assay: DIMSCAN cytotoxicity, fenretinide + L-threo-sphinganines 3:1 (Example B7); set-up: key to CI (Combination Index): Chou-Talalay CI: <0.9 synergy, 0.9-1.1 additive, >1.1 antagonism; conditions: 96 h
Procedure, shortened: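 SJ-GBM2 cells exposed 96 h at 37 °C to fenretinide and L-threo-sphinganines, alone or 3:1 fenretinide:sphinganine, 12 wells per concentration. Viable cells stained with fluorescein diacetate (8 μg/mL final) with eosin Y quench, read by digital imaging; survival fraction vs vehicle, combination index by Chou-Talalay.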

[4] = tested on: U-266 Multiple Myeloma cell line; assay: DIMSCAN cytotoxicity, fenretinide + L-threo-sphinganines 3:1 (Example B3); conditions: 96 h
Procedure, shortened: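 Cells plated at 2000–10,000/well, attached overnight, then exposed 96 h at 37 °C to fenretinide and L-threo-sphinganines alone or at 3:1 fenretinide:sphinganine. Viable cells read by DIMSCAN (fluorescein diacetate 8 microgram/mL, eosin Y quench) as survival fraction versus vehicle; synergy scored by Chou-Talalay combination index.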

[5] = tested on: HT-29 colorectal adenocarcinoma cell line; assay: DIMSCAN cytotoxicity, fenretinide + L-threo-sphinganines 3:1 (Example B10); conditions: 96 h
Procedure, shortened: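 HT-29 cells exposed 96 h at 37° C to fenretinide and L-threo-sphinganines alone or at 3:1 fenretinide:sphinganine, 12 wells per concentration. Viable cells quantified by DIMSCAN (fluorescein diacetate, eosin Y quench); survival fraction versus vehicle controls, combinations assessed by Chou-Talalay combination index.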

[6] = tested on: PANC-1 pancreatic adenocarcinoma cell line; assay: DIMSCAN cytotoxicity, fenretinide + L-threo-sphinganines 3:1 (Example B18)
Procedure, shortened: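 PANC-1 cells plated overnight, then exposed 96 h at 37 °C, 5% CO2 to fenretinide and L-threo-sphinganines alone or at 3:1 fenretinide:sphinganine, 12 wells per concentration. Viable cells read by DIMSCAN (fluorescein diacetate 8 microgram/mL final, eosin Y quench) as survival fraction versus vehicle controls; synergy scored by Chou-Talalay combination index.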

[7] = tested on: OVCAR-8 ovarian adenocarcinoma cell line; assay: DIMSCAN cytotoxicity, fenretinide + L-threo-sphinganines 3:1 (Example B15); set-up: key to CI (Combination Index): Chou-Talalay CI: <0.9 synergy, 0.9-1.1 additive, >1.1 antagonism; conditions: 96 h
Procedure, shortened: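 OVCAR-8 cells (2000–10,000/well) attached overnight, then treated with fenretinide and L-threo-sphinganines singly or at 3:1 fenretinide:sphinganine for 96 h at 37°C. Viable cells measured by fluorescein diacetate uptake with eosin Y quench (DIMSCAN); survival fraction versus vehicle, synergy by Chou-Talalay combination index.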

[8] = tested on: A-2058 melanoma cell line; assay: DIMSCAN cytotoxicity, fenretinide + L-threo-sphinganines 3:1 (Example B11); conditions: 96 h
Procedure, shortened: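 A-2058 human melanoma cells plated at 2000–10,000/well, attached overnight, then exposed 96 h at 37 °C to fenretinide and L-threo-sphinganines alone or at 3:1 fenretinide:sphinganine. Viable cells quantified by DIMSCAN (fluorescein diacetate 8 µg/mL, eosin Y quench); survival fraction vs vehicle controls; synergy by Chou-Talalay combination index.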

[9] = 4-HPR 1.5 μM + L-threo-sphinganine 0.5 μM
[10] = 4-HPR 3 μM + L-threo-sphinganine 1 μM
[11] = 4-HPR 6 μM + L-threo-sphinganine 2 μM
[12] = 4-HPR 9 μM + L-threo-sphinganine 3 μM

SMILES: CCCCCCCCCCCCCCC[C@H](O)[C@@H](N)CO [C18, (2S,3S)-2-amino-1,3-octadecanediol, reference compound]
- CI (Combination Index) [1, 9]: 1.0
- Fa (fraction affected) [1, 9]: 0.012
- CI (Combination Index) [1, 10]: 1.0
- Fa (fraction affected) [1, 10]: 0.05
- CI (Combination Index) [1, 11]: 1.0
- Fa (fraction affected) [1, 11]: 0.200
- CI (Combination Index) [1, 12]: 0.6
- Fa (fraction affected) [1, 12]: 0.700
- CI [2, 9]: 1.1
- Fa [2, 9]: 0.202
- CI [2, 10]: 1.4
- Fa [2, 10]: 0.346
- CI [2, 11]: 1.1
- Fa [2, 11]: 0.719
- CI [2, 12]: 0.7
- Fa [2, 12]: 0.918
- CI (Combination Index) [3, 9]: >>1
- Fa (fraction affected) [3, 9]: 0.001
- CI (Combination Index) [3, 10]: 0.6
- Fa (fraction affected) [3, 10]: 0.712
- CI (Combination Index) [3, 11]: 0.6
- Fa (fraction affected) [3, 11]: 0.987
- CI (Combination Index) [3, 12]: 0.7
- Fa (fraction affected) [3, 12]: 0.999
- CI (Combination Index) [4, 9]: 1.4
- Fa (fraction affected) [4, 9]: 0.048
- CI (Combination Index) [4, 10]: 1.5
- Fa (fraction affected) [4, 10]: 0.268
- CI (Combination Index) [4, 11]: 1.3
- Fa (fraction affected) [4, 11]: 0.883
- CI (Combination Index) [4, 12]: 0.8
- Fa (fraction affected) [4, 12]: 0.999
- CI (Combination Index) [5, 9]: 0.9
- Fa (fraction affected) [5, 9]: 0.243
- CI (Combination Index) [5, 10]: 0.7
- Fa (fraction affected) [5, 10]: 0.756
- CI (Combination Index) [5, 11]: 0.5
- Fa (fraction affected) [5, 11]: 0.983
- CI (Combination Index) [5, 12]: 0.3
- Fa (fraction affected) [5, 12]: 0.999
- CI [6, 9]: 2.5
- Fa [6, 9]: 0.136
- CI [6, 10]: 2.1
- Fa [6, 10]: 0.336
- CI [6, 11]: 1.4
- Fa [6, 11]: 0.620
- CI [6, 12]: 1.5
- Fa [6, 12]: 0.700
- CI (Combination Index) [7, 9]: 1.5
- Fa (fraction affected) [7, 9]: 0.122
- CI (Combination Index) [7, 10]: 1.5
- Fa (fraction affected) [7, 10]: 0.202
- CI (Combination Index) [7, 11]: 0.7
- Fa (fraction affected) [7, 11]: 0.536
- CI (Combination Index) [7, 12]: 0.5
- Fa (fraction affected) [7, 12]: 0.761
- CI (Combination Index) [8, 9]: >1
- Fa (fraction affected) [8, 9]: 0.001
- CI (Combination Index) [8, 10]: >1
- Fa (fraction affected) [8, 10]: 0.01
- CI (Combination Index) [8, 11]: >1
- Fa (fraction affected) [8, 11]: 0.099
- CI (Combination Index) [8, 12]: 1.22
- Fa (fraction affected) [8, 12]: 0.815

SMILES: CCCCCCCCCCCCCC[C@H](O)[C@@H](N)CO [C17, (2S,3S)-2-amino-1,3-heptadecanediol]
- CI (Combination Index) [1, 9]: 1.6
- Fa (fraction affected) [1, 9]: 0.01
- CI (Combination Index) [1, 10]: 1.5
- Fa (fraction affected) [1, 10]: 0.010
- CI (Combination Index) [1, 11]: 1.0
- Fa (fraction affected) [1, 11]: 0.010
- CI (Combination Index) [1, 12]: 1.1
- Fa (fraction affected) [1, 12]: 0.010
- CI [2, 9]: 0.7
- Fa [2, 9]: 0.214
- CI [2, 10]: 0.9
- Fa [2, 10]: 0.338
- CI [2, 11]: 0.8
- Fa [2, 11]: 0.623
- CI [2, 12]: 0.5
- Fa [2, 12]: 0.862
- CI (Combination Index) [3, 9]: 0.5
- Fa (fraction affected) [3, 9]: 0.188
- CI (Combination Index) [3, 10]: 0.5
- Fa (fraction affected) [3, 10]: 0.796
- CI (Combination Index) [3, 11]: 0.7
- Fa (fraction affected) [3, 11]: 0.962
- CI (Combination Index) [3, 12]: 0.7
- Fa (fraction affected) [3, 12]: 0.998
- CI (Combination Index) [4, 9]: 1.3
- Fa (fraction affected) [4, 9]: 0.134
- CI (Combination Index) [4, 10]: 1.5
- Fa (fraction affected) [4, 10]: 0.35
- CI (Combination Index) [4, 11]: 0.9
- Fa (fraction affected) [4, 11]: 0.901
- CI (Combination Index) [4, 12]: 0.4
- Fa (fraction affected) [4, 12]: 0.991
- CI (Combination Index) [5, 9]: 1.1
- Fa (fraction affected) [5, 9]: 0.112
- CI (Combination Index) [5, 10]: 0.8
- Fa (fraction affected) [5, 10]: 0.661
- CI (Combination Index) [5, 11]: 0.6
- Fa (fraction affected) [5, 11]: 0.974
- CI (Combination Index) [5, 12]: 0.5
- Fa (fraction affected) [5, 12]: 0.993
- CI [6, 9]: 1.5
- Fa [6, 9]: 0.171
- CI [6, 10]: 1.7
- Fa [6, 10]: 0.311
- CI [6, 11]: 0.9
- Fa [6, 11]: 0.714
- CI [6, 12]: 0.1
- Fa [6, 12]: 0.990
- CI (Combination Index) [7, 9]: 0.2
- Fa (fraction affected) [7, 9]: 0.467
- CI (Combination Index) [7, 10]: 0.4
- Fa (fraction affected) [7, 10]: 0.519
- CI (Combination Index) [7, 11]: 0.5
- Fa (fraction affected) [7, 11]: 0.676
- CI (Combination Index) [7, 12]: 0.4
- Fa (fraction affected) [7, 12]: 0.903
- CI (Combination Index) [8, 9]: 0.9
- Fa (fraction affected) [8, 9]: 0.211
- CI (Combination Index) [8, 10]: 1.2
- Fa (fraction affected) [8, 10]: 0.359
- CI (Combination Index) [8, 11]: 1.4
- Fa (fraction affected) [8, 11]: 0.664
- CI (Combination Index) [8, 12]: 1.5
- Fa (fraction affected) [8, 12]: 0.849
